Laboratory results as given in patent US6228868A, “Oxazoline antiproliferative agents” (Abbott Laboratories, priority 1999, dated 2001).

Columns and labels:
[1] = tested on: HCT-15 cells; assay: 48-hour cellular proliferation assay, sulforhodamine stain (human colon adenocarcinoma, MDR positive); assay type: cell-based
Experimental: (§1) Compounds of this invention were tested in a 48-hour cellular proliferation assay that uses human colon adenocarcinoma, MDR positive (HCT-15) cells, and human lung large cell carcinoma, MDR negative (NCI-H460) cells, in the 96-well microtitre format described in Skehan P., et al. New Colorimetric Cytotoxicity Assay for Anticancer Drug Screening. 1990, J. Natl. Cancer Inst. 82:1107-1112, hereby incorporated by reference. Briefly, the wells of a microtitre plate were charged sequentially with cultured cells and compounds of the invention (1.0×10^-4 to 1.0×10^-11 M in 10% DMSO prepared by dissolving compounds of the invention in DMSO and adding 11 μL of the DMSO solution to 100 μL of culture medium for a final DMSO concentration of 10%). Two of the following controls were also present in each microtitre plate: a solvent (DMSO) control without drug that yielded a 0% inhibition level and a trichloroacetic acid-treated well that yielded a 100% inhibition level. The cells were grown in culture (37° C., 5% CO2 atmosphere) for 48 hours then fixed by the addition of trichloroacetic acid. The wells were stained with sulforhodamine, washed with 1% acetic acid, and treated with 0.01 M tris buffer (100 μL) to solubilize the adherent dye. The absorbance of the dye solution was measured with a Molecular Devices SpectraMax340 plate reader. Percent inhibition and Inhibitory Concentrations (IC50) values were obtained by calculating the proportional response of the experimental values to the absorbance values of the controls.

[2] = tested on: NCI-H460 cells; assay: 48-hour cellular proliferation assay, sulforhodamine stain (human lung large cell carcinoma, MDR negative); assay type: cell-based; details: NCI-H460 cells
Experimental: as §1

[3] = Homo sapiens, values given in μM

SMILES | IC50 [1, 3] [µM] | IC50 [2, 3] [µM] | IC50 ([1]; Homo sapiens, values in nM) [µM] | IC50 ([2]; Homo sapiens, values in nM) [µM] | also measured
COc1cc(C2CN=C(c3ccc4ncccc4c3)O2)cc(OC)c1OC (stereo not drawn) [Example 35, 2-(6-guinolinvl)-5-(3,4,5-trimethoxyphenyl)-Δ2,3-oxazoline] | 2.4 | 3.2 |  |  | 
COc1cc(C2CN=C(c3ccnc4ccccc34)O2)cc(OC)c1OC (stereo not drawn) [Example 37, 2-(4-quinolinyl)-5-(3,4,5-trimethoxyphenyl)-Δ2,3-oxazoline] | 44 | 37 |  |  | 
COc1cc(C2CN=C(c3nccc4ccccc34)O2)cc(OC)c1OC (stereo not drawn) [Example 38, 2-(1-isoquinolinyl)-5-(3,4,5-trimethoxyphenyl)-Δ2,3-oxazoline] | 63 | 78 |  |  | 
COc1ccc(C2=NCC(c3cc(OC)c(OC)c(OC)c3)O2)cc1N (stereo not drawn) [Example 39, 2-(3-amino-4-methoxyphenyl)-5-(3,4,5-trimethoxyphenyl)-Δ2,3-oxazoline] |  |  | 0.033 | 0.068 | 
COc1cc(C2CN=C(c3ccc(C)c(N)c3)O2)cc(OC)c1OC (stereo not drawn) [Example 40, 2-(3-amino-4-methyphenyl)-5-(3,4,5-trimethoxyphenyl)-Δ2,3-oxazoline] |  |  | 0.062 | 0.082 | 
COc1ccc(C2=NCC(c3cc(OC)c(OC)c(OC)c3)O2)cc1NC(=O)C(C)NC(=O)C(C)N (stereo not drawn) [Example 41] |  |  |  |  | IC50 ([1]; values in nM): 0.52 µM; IC50 ([2]; values in nM): 0.59 µM
COc1ccc(C2=NCC(c3cc(OC)c(OC)c(OC)c3)O2)cc1NC(=O)[C@@H](N)CO (stereo partly drawn) [Example 44] | 6.6 | 3.8 |  |  | 
COc1cc(C2CN=C(c3ccn(C)c(=O)c3)O2)cc(OC)c1OC (stereo not drawn) [Example 46, 2-(1-methyl-1H-pyridin-2-on-4-yl)-5-(3,4,5-trimethoxyphenyl)-Δ2,3-oxazoline] |  |  | 0.44 | 0.47 | 
COc1cc(C2CN=C(c3ccc4c(ccn4C(=S)SC)c3)O2)cc(OC)c1OC (stereo not drawn) [Example 56, 2-(1-methlthiothiocarbonylindol-5-yl)-5-(3,4,5-trimethoxyphenyl)-Δ2,3-oxazoline] | 12 | 6 |  |  | 
COc1cc(C2CN=C(c3cc4ccn(C)c4cc3Cl)O2)cc(OC)c1OC (stereo not drawn) [Example 60, 2-(6-Chloro-1-methylindol-5-yl)-5-(3,4,5-trimethoxyphenyl)-Δ2,3-oxazoline] |  |  | 0.28 | 0.41 | 
COc1cc(C2CN=C(c3ccc4c(ccn4C(F)F)c3)O2)cc(OC)c1OC (stereo not drawn) [Example 61, 2-(1-difluoromethylindol-5-yl)-5-(3,4,5-trimethoxyphenyl)-Δ2,3-oxazoline] |  |  | 0.0019 | 0.0018 | 
COc1cc(C2CN=C(c3ccc4c(c3)c(Cl)cn4C)O2)cc(OC)c1OC (stereo not drawn) [Example 62, 2-(3-chloro-1-methylindol-5-yl)-5-(3,4,5-trimethoxyphenyl)-Δ2,3-oxazoline] |  |  | 0.023 | 0.037 | 
COc1cc(C2CN=C(c3cc(F)c4c(ccn4C)c3)O2)cc(OC)c1OC (stereo not drawn) [Example 64, 2-(1-methyl-7-fluoro-5-indolyl)-5-(3,4,5-trimethoxyphenyl)-Δ2,3-oxazoline] |  |  | 0.00396 | 0.0029 | 
COc1cc(C2CN=C(c3ccc4c(ccn4CO)c3)O2)cc(OC)c1OC (stereo not drawn) [Example 69, 2-(1-hydroxymethylindol-5-yl)-5-(3,4,5-trimethoxyphenyl)-Δ2,3-oxazoline] |  |  | 0.45 | 0.68 | 
COCn1ccc2cc(C3=NCC(c4cc(OC)c(OC)c(OC)c4)O3)ccc21 (stereo not drawn) [Example 70, 2-(1-methoxymethyl-5-indolyl)-5-(3,4,5-trimethoxyphenyl)-Δ2,3-oxazoline] |  |  | 0.17 | 0.21 | 
COc1cc(C2CN=C(c3ccc4c(c3)cc(C)n4C)O2)cc(OC)c1OC (stereo not drawn) [Example 71] |  |  | 0.005 | 0.017 | 
COc1cc(C2CN=C(c3ccc4c(c3)c(C(=O)C(F)(F)F)cn4C)O2)cc(OC)c1OC (stereo not drawn) [Example 77, 2-(1-methyl-3-trifluoroacetylindol-5-yl)-5-(3,4,5-trimethoxyphenyl)-Δ2,3-oxazoline] | 3.8 | 4.2 |  |  | 
COc1cc(C2CN=C(c3ccc4c(ccn4CC(F)(F)F)c3)O2)cc(OC)c1OC (stereo not drawn) [Example 78, 2-(1-(2,2,2-trifluoroethyl)indol-5-yl)-5-(3,4,5-trimethoxyphenyl)-Δ2,3-oxazoline] | 1.9 | 3.5 |  |  | 

Second part, led by results:

IC50 [1, 3] [µM] | IC50 [2, 3] [µM] | IC50 ([1]; Homo sapiens, values in nM) [µM] | IC50 ([2]; Homo sapiens, values in nM) [µM] | SMILES | also measured
 |  | 0.02 | 0.043 | COc1cc(C2CN=C(c3cc(F)c4[nH]ccc4c3)O2)cc(OC)c1OC (stereo not drawn) [Example 63, 2-(7-fluoro-5-indolyl)-5-(3,4,5-trimethoxyphenyl)-Δ2,3-oxazoline] | 
 |  | 0.037 | 0.051 | COc1cc(C2CN=C(c3cc(Cl)c4[nH]ccc4c3)O2)cc(OC)c1OC (stereo not drawn) [Example 65, 2-(7-chloro-5-indolyl)-5-(3,4,5-trimethoxyphenyl)-Δ2,3-oxazoline] | 
 |  | 0.046 | 0.1 | COc1cc(C2CN=C(c3cc(Cl)c4c(ccn4C)c3)O2)cc(OC)c1OC (stereo not drawn) [Example 66, 2-(1-methyl-7-chloro-5-indolyl)-5-(3,4,5-trimethoxyphenyl)-Δ2,3-oxazoline] | 
 |  | 0.023 | 0.038 | COc1cc(C2CN=C(c3ccc4[nH]cc(F)c4c3)O2)cc(OC)c1OC (stereo not drawn) [Example 67, 2-(3-fluoro-5-indolyl)-5-(3,4,5-trimethoxyphenyl)-Δ2,3-oxazoline] | 
 |  | 0.047 | 0.15 | COc1cc(C2CN=C(c3ccc4c(c3)c(F)cn4C)O2)cc(OC)c1OC (stereo not drawn) [Example 68] | 
 |  | 0.011 | 0.036 | COc1cc(C2CN=C(c3cc(C)c4[nH]ccc4c3)O2)cc(OC)c1OC (stereo not drawn) [Example 72, 2-(7-methyl-5-indolyl)-5-(3,4,5-trimethoxyphenyl)-Δ2,3-oxazoline] | 
 |  | 0.034 | 0.041 | COc1cc(C2CN=C(c3cc(C)c4c(ccn4C)c3)O2)cc(OC)c1OC (stereo not drawn) [Example 73, 2-(1,7-dimethyl-5-indolyl)-5-(3,4,5-trimethoxyphenyl)-Δ2,3-oxazoline] | 
1.3 | 1.2 |  |  | COc1cc(C2CN=C(c3cc(C)c4c(c3)cc(C)n4C)O2)cc(OC)c1OC (stereo not drawn) [Example 74, 2-(1,2,7-trimethylindol-5-yl)-5-(3,4,5-trimethoxyphenyl)-Δ2,3-oxazoline] | 
1.9 | 3.8 |  |  | COc1cc(C2CN=C(c3ccc4c(c3)nc(C)n4C)O2)cc(OC)c1OC (stereo not drawn) [Example 75, 2-(1,2-dimethylbenzimidazol-5-yl)-5-(3,4,5-trimethoxyphenyl)-Δ2,3-oxazoline] | 
